The values that follow come from US20090030086A1, “ANTIMICROBIAL AGENTS” (priority 2005, published 2009).

For assay [1], the system named is S. aureus ATCC 29213. Kind of assay: Supplemented disc diffusion assay. The class given is cell-based, Staphylococcus aureus. To be noted: Staphylococcus aureus, ATCC29213, 24 h, S. aureus ATCC 29213, 200 μg per disc (thymoquinone 50 μg, 2,6-dimethoxy-p-benzoquinone 100 μg). The gist of the method: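 Paper discs loaded with compound (200 μg per disc for most assays) placed on inoculated Mueller-Hinton agar, pH 7.2, supplemented with 5% v/v defibrinated horse blood, 1% v/v Tween 80 and 100 mM NaCl. Aerobic incubation at 37° C for 24 h; inhibition zone diameter measured.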

For assay [2], the system named is S. aureus ATCC 29213. The experiment in a line: MBC assay. The class given is cell-based, Staphylococcus aureus. The gist of the method: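 Follows an MIC assay; samples sub-cultured onto non-selective agar and inspected visually for growth to give the minimum lethal concentration. Culture on Mueller-Hinton medium, pH 7.2, aerobic, 37° C, 24 hours.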
The subject of assay [3] is P. acnes NCTC 737. Kind of assay: Supplemented disc diffusion assay. Type of assay: cell-based, Propionibacterium acnes. To be noted: Cutibacterium acnes, NCTC737, 72 h, P. acnes NCTC 737, 200 μg per disc (2,6-dimethoxy-p-benzoquinone 100 μg). The gist of the method: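 Propionibacterium discs loaded with 200 μg compound on Wilkins-Chalgren Anaerobe agar, pH 6.0, supplemented with Tween 80 (1% v/v) and NaCl (100 mM); anaerobic incubation at 37 °C for 72 h. Inhibition zone diameter measured by automated zone sizer.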

Assay [4] relates to S. aureus ATCC 29213. The experiment in a line: Disc diffusion assay (DDA). Type of assay: cell-based, Staphylococcus aureus. To be noted: Staphylococcus aureus, ATCC29213; S. aureus ATCC 29213; unsupplemented agar; 200 μg per disc (thymoquinone 50 μg, 2,6-dimethoxy-p-benzoquinone 100 μg); read-out: DDA (diameter of zone of inhibition). The gist of the method: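 Paper discs loaded with test compound (usually 200 μg/disc), solvent evaporated ≥30 min, placed on inoculated Mueller-Hinton agar pH 7.2. Incubated aerobically at 37 °C for 24 h; inhibition zone diameter measured and area calculated as π(D/2)^2.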

The subject of assay [5] is P. acnes NCTC 737. The experiment in a line: MIC assay. The class given is cell-based, Propionibacterium acnes. To be noted: Cutibacterium acnes, NCTC737; P. acnes NCTC 737; Wilkins-Chalgren broth pH 6.0, anaerobic, 37° C., 72 hours; read-out: MIC. The gist of the method:
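Broth microdilution in Wilkins-Chalgren Anaerobe broth pH 6.0, inoculated with freshly grown P. acnes NCTC 737 and incubated anaerobically at 37° C for 72 hours. MIC is the lowest compound concentration leaving the well visually clear, read on a light box. Run in duplicate with medium-only and solvent-plus-inoculum controls.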

For assay [6], the system named is S. aureus ATCC 29213. Kind of assay: MIC assay. Type of assay: cell-based, Staphylococcus aureus. The note with it: Staphylococcus aureus, ATCC29213; S. aureus ATCC 29213; Mueller-Hinton broth pH 7.2, aerobic, 37° C., 24 hours; read-out: MIC. The gist of the method:
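Broth microdilution in Mueller-Hinton broth at pH 7.2, incubated aerobically at 37 °C for 24 h and run in duplicate with medium-only and solvent/inoculum controls. The MIC was the lowest concentration whose well stayed visibly clear.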

Assay [7] relates to P. acnes NCTC 737. The experiment in a line: Disc diffusion assay (DDA). The class given is cell-based, Propionibacterium acnes. To be noted: Cutibacterium acnes, NCTC737; P. acnes NCTC 737; unsupplemented agar; 200 μg per disc (2,6-dimethoxy-p-benzoquinone 100 μg); read-out: DDA (diameter of zone of inhibition).
Assay [8] relates to P. acnes NCTC 737. The experiment in a line: MBC assay. The class given is cell-based, Propionibacterium acnes. The note with it: P. acnes NCTC 737. The gist of the method:
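Plates were then checked visually for growth. The MBC is the lowest lethal concentration; cultures were grown on Wilkins-Chalgren Anaerobe Medium at pH 6.0.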

The mark [9] stands for this setting: Tween 80 at 1% v/v, read-out: DDA + lipid.
Setting [10] is: sodium chloride 100 mM, read-out: DDA + salt.

In general, MBC refers to the lowest tested concentration that kills the bacteria rather than only halting them. In general, MIC refers to the lowest concentration found to suppress growth.

In brackets after ≈: the same amount, converted by molar mass.

For the molecule `Cc1cc(O)c(C(C)C)cc1O` [thymohydroquinone], the zone of inhibition at 200 µg/disc in the assay on S. aureus ATCC 29213 [1] (setting [9]) stood at 41.7 mm; with S. aureus ATCC 29213 [1] (defibrinated horse blood 5% v/v, read-out: DDA + blood), 10.3 mm; in the assay with S. aureus ATCC 29213 [1] (setting [10]), 57.6 mm; in the assay on P. acnes NCTC 737 [3] (setting [9]), 0 mm; in the assay with P. acnes NCTC 737 [3] (setting [10]), 9.61 mm; in the assay on S. aureus ATCC 29213 [4], 57.6 mm. Moreover, the zone of inhibition at 200 µg/disc with P. acnes NCTC 737 [7] came out at 9.82 mm. For the same molecule, the figures for the MIC/MBC ratio in the assay with S. aureus ATCC 29213 [2] and in the assay with P. acnes NCTC 737 [8] were 0.5 and 1, respectively. Further, the MBC with S. aureus ATCC 29213 [2] (Staphylococcus aureus, ATCC29213, read-out: MBC) came to 15.6 µg/mL (≈ 93.9 µM); in the assay on P. acnes NCTC 737 [8] (Cutibacterium acnes, NCTC737, read-out: MBC), 31.2 µg/mL (≈ 188 µM). Further, the MIC was 31.2 µg/mL (≈ 188 µM) with P. acnes NCTC 737 [5] and 7.8 µg/mL (≈ 46.9 µM) in the assay on S. aureus ATCC 29213 [6].
